Test results published in US10550105B2 (Ribon Therapeutics Inc., priority 2018, dated 2020).

These compounds were tested against PARP7 (Homo sapiens (Human), UniProt Q7Z3E1) (assay: Enzymatic assay for inhibition of PARP7: TR-FRET displacement of biotinylated Probe A from the TIPARP active site). Conditions: Table A-1.
Type: binding
Procedure, shortened: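 Read-out: 665/615 nm emission ratio (ex 320 nm, 90 μs delay) indexing bound TIPARP–Probe A. Final incubation 30 min, 25° C; compounds in dose response. Curve fit of % inhibition vs concentration; Hill slope floating or fixed at 1 (3-parameter).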

Sequence of PARP7 (Q7Z3E1 whole entry): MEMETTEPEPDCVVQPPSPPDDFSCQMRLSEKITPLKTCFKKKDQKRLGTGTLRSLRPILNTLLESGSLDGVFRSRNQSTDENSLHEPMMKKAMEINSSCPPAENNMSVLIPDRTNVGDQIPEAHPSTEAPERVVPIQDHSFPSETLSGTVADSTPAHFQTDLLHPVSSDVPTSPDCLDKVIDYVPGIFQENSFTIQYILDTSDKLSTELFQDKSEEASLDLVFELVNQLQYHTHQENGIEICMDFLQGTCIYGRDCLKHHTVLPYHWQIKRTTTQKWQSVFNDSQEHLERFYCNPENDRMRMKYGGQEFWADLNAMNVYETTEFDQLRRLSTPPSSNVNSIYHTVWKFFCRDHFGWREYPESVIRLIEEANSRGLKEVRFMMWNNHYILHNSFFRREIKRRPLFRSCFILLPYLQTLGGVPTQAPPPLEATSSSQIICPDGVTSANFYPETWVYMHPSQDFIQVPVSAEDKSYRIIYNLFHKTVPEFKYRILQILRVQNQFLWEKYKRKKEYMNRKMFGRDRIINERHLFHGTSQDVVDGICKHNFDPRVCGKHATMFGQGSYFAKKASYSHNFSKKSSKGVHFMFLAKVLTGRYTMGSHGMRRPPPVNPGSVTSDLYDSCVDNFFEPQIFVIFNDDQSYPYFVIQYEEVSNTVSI

Row | Structure (SMILES) | IC50 [nM]
1 | O=c1[nH]ncc(N2Cc3cccc(F)c3C2)c1Cl [Example 60, 4-Chloro-5-(4-fluoro-2,3-dihydro-1H-isoindol-2-yl)-2,3-dihydropyridazin-3-one] | 100 to 1000
2 | N#Cc1ccc(N2CCN(C(=O)c3cccc(OCC4COCCN4c4cn[nH]c(=O)c4C(F)(F)F)c3)CC2)nc1 (stereo not drawn) [Example 71, 6-(4-[[3-([4-[6-oxo-5-(trifluoromethyl)-1,6-dihydropyridazin-4-yl]morpholin-3-yl]methoxy)phenyl]carbonyl]piperazin-1-yl)pyridine-3-carbonitrile] | 100 to 1000
3 | C[C@@H]1C[C@@H](COc2cccc(C(=O)N3CCN(c4ccc(C#N)cn4)CC3)c2)N(c2cn[nH]c(=O)c2C(F)(F)F)C1 [Example 75, 6-[4-[(3-[[(2S,4R)-4-methyl-1-[6-oxo-5-(trifluoromethyl)-1,6-dihydropyridazin-4-yl]pyrrolidin-2-yl]methoxy]phenyl)carbonyl]piperazin-1-yl]pyridine-3-carbonitrile] | < 100
4 | N#Cc1ccc(N2CCN(C(=O)COC[C@@H]3CCCN3c3cn[nH]c(=O)c3C(F)(F)F)CC2)nc1 [Example 76, 6-[4-(2-[[(2S)-1-[6-oxo-5-(trifluoromethyl)-1,6-dihydropyridazin-4-yl]pyrrolidin-2-yl]methoxy]acetyl)piperazin-1-yl]pyridine-3-carbonitrile] | < 100
5 | N#Cc1ccc(N2CCN(C(=O)CCCOC[C@@H]3CCCN3c3cn[nH]c(=O)c3C(F)(F)F)CC2)nc1 [Example 77, 6-[4-(4-[[(2S)-1-[6-oxo-5-(trifluoromethyl)-1,6-dihydropyridazin-4-yl]pyrrolidin-2-yl]methoxy]butanoyl)piperazin-1-yl]pyridine-3-carbonitrile] | < 100
6 | C[C@H]1C[C@@H](COCCC(=O)N2CCN(c3ccc(C#N)cn3)CC2)N(c2cn[nH]c(=O)c2C(F)(F)F)C1 [Example 78, 6-[4-(3-[[(2S,4S)-4-methyl-1-[6-oxo-5-(trifluoromethyl)-1,6-dihydropyridazin-4-yl]pyrrolidin-2-yl]methoxy]propanoyl)piperazin-1-yl]pyridine-3-carbonitrile] | < 100
7 | N#Cc1ccc(N2CCN(C(=O)/C=C/COC[C@@H]3c4ccccc4CN3c3cn[nH]c(=O)c3C(F)(F)F)CC2)nc1 [Example 79 Isomer C, 6-[4-[(2E)-4-[[(1S)-2-[6-oxo-5-(trifluoromethyl)-1,6-dihydropyridazin-4-yl]-2,3-dihydro-1H-isoindol-1-yl]methoxy]but-2-enoyl]piperazin-1-yl]pyridine-3-carbonitrile] | < 100
8 | N#Cc1ccc(N2CCN(C(=O)/C=C/COC[C@H]3c4ccccc4CN3c3cn[nH]c(=O)c3C(F)(F)F)CC2)nc1 [Example 79 Isomer D, 6-[4-[(2E)-4-[[(1R)-2-[6-oxo-5-(trifluoromethyl)-1,6-dihydropyridazin-4-yl]-2,3-dihydro-1H-isoindol-1-yl]methoxy]but-2-enoyl]piperazin-1-yl]pyridine-3-carbonitrile] | < 100
9 | O=C(COC[C@@H]1CCCN1c1cn[nH]c(=O)c1C(F)(F)F)NC1CCC(Oc2ccccn2)CC1 (stereo partly drawn) [Example 83, 2-[[(2S)-1-[6-oxo-5-(trifluoromethyl)-1,6-dihydropyridazin-4-yl]pyrrolidin-2-yl]methoxy]-N-[4-(pyridin-2-yloxy)cyclohexyl]acetamide] | 100 to 1000
10 | O=C(CCOC[C@@H]1CCCN1c1cn[nH]c(=O)c1C(F)(F)F)NC1CCC(Oc2ccccn2)CC1 (stereo partly drawn) [Example 84, 3-[[(2S)-1-[6-oxo-5-(trifluoromethyl)-1,6-dihydropyridazin-4-yl]pyrrolidin-2-yl]methoxy]-N-[4-(pyridin-2-yloxy)cyclohexyl]propanamide] | 100 to 1000
11 | N#Cc1ccc(NCCC(=O)Nc2cccc(OC[C@@H]3CCCN3c3cn[nH]c(=O)c3C(F)(F)F)c2)nc1 [Example 85, 3-[(5-cyanopyridin-2-yl)amino]-N-(3-[[(2S)-1-[6-oxo-5-(trifluoromethyl)-1,6-dihydropyridazin-4-yl]pyrrolidin-2-yl]methoxy]phenyl)propanamide] | < 100
12 | C=CC(=O)Nc1cccc(OC[C@@H]2CCCN2c2cn[nH]c(=O)c2C(F)(F)F)c1 [Example 86, N-(3-[[(2S)-1-[6-oxo-5-(trifluoromethyl)-1,6-dihydropyridazin-4-yl]pyrrolidin-2-yl]methoxy]phenyl)prop-2-enamide] | 100 to 1000
13 | N#Cc1ccc(NCCC(=O)Nc2cncc(OC[C@@H]3CCCN3c3cn[nH]c(=O)c3C(F)(F)F)c2)nc1 [Example 87, 3-[(5-cyanopyridin-2-yl)amino]-N-(5-[[(2S)-1-[6-oxo-5-(trifluoromethyl)-1,6-dihydropyridazin-4-yl]pyrrolidin-2-yl]methoxy]pyridin-3-yl)propanamide] | < 100
14 | N#Cc1ccc(N2CCN(C(=O)COCC[C@@H]3CCCN3c3cn[nH]c(=O)c3C(F)(F)F)CC2)nc1 [Example 88, (S)-6-(4-(2-(2-(1-(6-oxo-5-(trifluoromethyl)-1,6-dihydropyridazin-4-yl)pyrrolidin-2-yl)ethoxy)acetyl)piperazin-1-yl)nicotinonitrile] | < 100

Further lines, results first:

Row | IC50 [nM] | Structure (SMILES)
15 | < 100 | O=c1[nH]ncc(N2Cc3cc(F)c(OC4CCCNC4)cc3C2)c1C(F)(F)F (stereo not drawn) [Example 58, 5-[5-fluoro-6-(piperidin-3-yloxy)-2,3-dihydro-1H-isoindol-2-yl]-4-(trifluoromethyl)-2,3-dihydropyridazin-3-one]
16 | < 100 | O=c1[nH]ncc(N2Cc3ccc(F)cc3C2)c1Cl [Example 59, 4-Chloro-5-(5-fluoro-2,3-dihydro-1H-isoindol-2-yl)-2,3-dihydropyridazin-3-one]
17 | < 100 | N#Cc1ccc(N2CCN(C(=O)c3cc(OCC4c5ccccc5CN4c4cn[nH]c(=O)c4C(F)(F)F)cnc3F)CC2)nc1 (stereo not drawn) [Example 61, 6-(4-[[2-fluoro-5-([2-[6-oxo-5-(trifluoromethyl)-1,6-dihydropyridazin-4-yl]-2,3-dihydro-1H-isoindol-1-yl]methoxy)pyridin-3-yl]carbonyl]piperazin-1-yl)pyridine-3-carbonitrile]
18 | < 100 | N#Cc1cnc(N2CCN(C(=O)c3cc(OCC4c5ccccc5CN4c4cn[nH]c(=O)c4C(F)(F)F)cnc3F)CC2)nc1 (stereo not drawn) [Example 62, 2-(4-[[2-fluoro-5-([2-[6-oxo-5-(trifluoromethyl)-1,6-dihydropyridazin-4-yl]-2,3-dihydro-1H-isoindol-1-yl]methoxy)pyridin-3-yl]carbonyl]piperazin-1-yl)pyrimidine-5-carbonitrile]
19 | < 100 | N#Cc1ccc(NCCC(=O)Nc2cncc(OCC3c4ccccc4CN3c3cn[nH]c(=O)c3C(F)(F)F)c2)nc1 (stereo not drawn) [Example 63, 3-[(5-cyanopyridin-2-yl)amino]-N-[5-([2-[6-oxo-5-(trifluoromethyl)-1,6-dihydropyridazin-4-yl]-2,3-dihydro-1H-isoindol-1-yl]methoxy)pyridin-3-yl]propanamide]
20 | < 100 | N#Cc1cnc(N2CCN(C(=O)c3cncc(OC[C@@H]4CCCN4c4cn[nH]c(=O)c4C(F)(F)F)c3)CC2)nc1 [Example 65, 2-[4-[(5-[[(2S)-1-[6-oxo-5-(trifluoromethyl)-1,6-dihydropyridazin-4-yl]pyrrolidin-2-yl]methoxy]pyridin-3-yl)carbonyl]piperazin-1-yl]pyrimidine-5-carbonitrile]
21 | < 100 | N#Cc1ccc(N2CCN(C(=O)c3nccc(OC[C@@H]4CCCN4c4cn[nH]c(=O)c4C(F)(F)F)n3)CC2)nc1 [Example 66, 6-[4-[(4-[[(2S)-1-[6-oxo-5-(trifluoromethyl)-1,6-dihydropyridazin-4-yl]pyrrolidin-2-yl]methoxy]pyrimidin-2-yl)carbonyl]piperazin-1-yl]pyridine-3-carbonitrile]
22 | < 100 | N#Cc1ccc(N2CCN(C(=O)c3cc(OC[C@@H]4CCCN4c4cn[nH]c(=O)c4C(F)(F)F)ccc3F)CC2)nc1 [Example 67, 6-[4-[(2-fluoro-5-[[(2S)-1-[6-oxo-5-(trifluoromethyl)-1,6-dihydropyridazin-4-yl]pyrrolidin-2-yl]methoxy]phenyl)carbonyl]piperazin-1-yl]pyridine-3-carbonitrile]
23 | < 100 | N#Cc1ccc(N2CCN(C(=O)c3ccnc(OC[C@@H]4CCCN4c4cn[nH]c(=O)c4C(F)(F)F)n3)CC2)nc1 [Example 68, 6-[4-[(2-[[(2S)-1-[6-oxo-5-(trifluoromethyl)-1,6-dihydropyridazin-4-yl]pyrrolidin-2-yl]methoxy]pyrimidin-4-yl)carbonyl]piperazin-1-yl]pyridine-3-carbonitrile]
24 | < 100 | N#Cc1ccc(N2CCN(C(=O)c3ccnc(OC[C@@H]4CCCN4c4cn[nH]c(=O)c4C(F)(F)F)c3)CC2)nc1 [Example 69, 6-[4-[(2-[[(2S)-1-[6-oxo-5-(trifluoromethyl)-1,6-dihydropyridazin-4-yl]pyrrolidin-2-yl]methoxy]pyridin-4-yl)carbonyl]piperazin-1-yl]pyridine-3-carbonitrile]
25 | < 100 | C[C@H]1C[C@@H](COc2cccc(C(=O)N3CCN(c4ccc(C#N)cn4)CC3)c2)N(c2cn[nH]c(=O)c2C(F)(F)F)C1 [Example 70, 6-[4-[(3-[[(2S,4S)-4-methyl-1-[6-oxo-5-(trifluoromethyl)-1,6-dihydropyridazin-4-yl]pyrrolidin-2-yl]methoxy]phenyl)carbonyl]piperazin-1-yl]pyridine-3-carbonitrile]
26 | < 100 | N#Cc1ccc(N2CCN(C(=O)c3cc(OC[C@@H]4CCCN4c4cn[nH]c(=O)c4C(F)(F)F)ccn3)CC2)nc1 [Example 73, 6-[4-[(4-[[(2S)-1-[6-oxo-5-(trifluoromethyl)-1,6-dihydropyridazin-4-yl]pyrrolidin-2-yl]methoxy]pyridin-2-yl)carbonyl]piperazin-1-yl]pyridine-3-carbonitrile]
27 | < 100 | N#Cc1ccc(N2CCN(C(=O)c3cncc(OC[C@@H]4CCCN4c4cn[nH]c(=O)c4C(F)(F)F)n3)CC2)nc1 [Example 74, 6-[4-[(6-[[(2S)-1-[6-oxo-5-(trifluoromethyl)-1,6-dihydropyridazin-4-yl]pyrrolidin-2-yl]methoxy]pyrazin-2-yl)carbonyl]piperazin-1-yl]pyridine-3-carbonitrile]
